Test results: patent publication US20110184147A1, “ENZYME SUBSTRATE FOR LABELING OF PROTEIN” (priority 2008, published 2011)
“Also recorded” adds a separate entry of the source. Square brackets hold non-standard residues; d marks the D form. Peptide text beside a SMILES is read from it. * marks the point of attachment. ξ: configuration not given here. Dansyl = CN(C)c1cccc2c(S(=O)(=O)*)cccc12; ξQ = NC(=O)CCC(N)C(=O)O; Ahx = NCCCCCC(=O)O

Columns and labels:
MTG [1] = target: T1, MTG (Streptomyces mobaraensis, UniProt P81453); test: MTG-catalyzed introduction of fluorescent substrates into NK6-AP (SDS-PAGE, fluorescent imager); type: biochemical, microbial; conditions: substrate 1 mM, NK6-AP 0.5 mg/ml, MTG 1 U/ml, 10 mM Tris-HCl pH 8, overnight 4° C.; listed as Dns-β-Acp-QG
T1 construct: purchased AJINOMOTO (supplied as a gift)
T1 sequence (P81453 77-407): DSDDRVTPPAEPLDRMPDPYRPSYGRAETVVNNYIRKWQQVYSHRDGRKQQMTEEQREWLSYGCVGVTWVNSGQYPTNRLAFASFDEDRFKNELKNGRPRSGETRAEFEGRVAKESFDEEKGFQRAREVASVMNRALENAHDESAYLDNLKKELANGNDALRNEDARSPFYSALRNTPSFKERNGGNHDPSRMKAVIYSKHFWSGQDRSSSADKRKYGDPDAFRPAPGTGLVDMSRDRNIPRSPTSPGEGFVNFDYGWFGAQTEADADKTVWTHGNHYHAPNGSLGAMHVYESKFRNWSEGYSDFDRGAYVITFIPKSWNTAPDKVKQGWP

MTG [2] = target: T1, MTG; test: as above; type: biochemical, microbial; conditions: NK6-AP 0.5 mg/ml, MTG 1 U/ml; for Reactivity of MTG for fluorescent substrate (introduction into NK6-AP): substrate 1 mM, 10 mM Tris-HCl pH 8, overnight 4° C.
Procedure: To perform a binding reaction, the fluorescent substrate (FITC-ε-Acp-QG, FITC-β-Ala-QG, Flc-QG, TR-β-Ala-QG or Dns-ε-Acp-QG), NK6-AP and MTG were added to 10 mM Tris-HCl (pH 8) to give respective final concentrations of 1 mM, 0.5 mg/ml and 1 U/ml and they were thoroughly agitated and the resulting solution was left to stand overnight at 4° C. For the purpose of comparison, an MTG-free sample was prepared.
After the reaction, the samples were subjected to SDS-polyacrylamide gel electrophoresis (SDS-PAGE). The gel from SDS-PAGE was examined with a fluorescent imager before it was stained with Coomassie Brilliant Blue (CBB) in solution. For the sample containing Dns-ε-Acp-QG, examination was made with a transilluminator.
A study was made using FITC-β-Ala-QG as a fluorescent substrate. The reaction conditions for introducing FITC-β-Ala-QG into NK6-AP were as follows: FITC-β-Ala-QG, NK6-AP and MTG were added to 10 mM Tris-HCl (pH 8) to give respective final concentrations of 0.1 mM, 0.5 mg/ml and 0.1 U/ml and they were thoroughly agitated at 4° C. for 0-5 hours. To trace the binding, the gel from SDS-PAGE was analyzed by a fluorescent imager.
A study was made using FITC-β-Ala-QG as a fluorescent substrate. The reaction conditions for introducing FITC-β-Ala-QG into NK6-AP were as follows: FITC-β-Ala-QG, NK6-AP and MTG were added to 10 mM Tris-HCl (pH 8) to give respective final concentrations of 1-1000 μM, 0.5 mg/ml and 0.1 U/ml and they were thoroughly agitated at 4° C. for 15 minutes. Tracing on the sample after the reaction was performed by the same procedure as in Experiment 2-4.
Dns-β-Ala-QG-biotin, NK6-AP and MTG were added to 20 mM Tris-HCl (pH 8) to give respective final concentrations of 100 μM, 0.5 mg/ml, and 1 U/ml. For the purpose of comparison, an MTG-free sample was prepared. The ingredients were thoroughly agitated and the resulting solution was left to stand overnight at 4° C. for reaction.
After the reaction, the samples were subjected to SDS-polyacrylamide gel electrophoresis (SDS-PAGE). The gel from SDS-PAGE was examined with a transilluminator before it was stained with Coomassie Brilliant Blue (CBB) in solution.
To a 50 mM buffer whose pH was varied over the range of from 5 to 9, FITC-β-Ala-QG, NK6-AP and MTG were added to give respective final concentrations of 0.1 mM, 0.5 mg/ml, and 0.1 U/ml. These ingredients were well stirred and left to stand at 4° C. for reaction. After 6-hr or 15-minute reaction, the sample was mixed with a sample buffer and heated at 95° C. for 15 minutes to stop the reaction. Thereafter, SDS-polyacrylamide gel electrophoresis (SDS-PAGE) was applied. The gel from SDS-PAGE was stained with Coomassie Brilliant Blue (CBB) and observed with a fluorescent imager.
To 50 mM Tris-HCl (pH 8), FITC-β-Ala-QG, NK6-AP and MTG were added to give respective final concentrations of 0.1 mM, 0.5 mg/ml, and 0.001-1 U/ml. These ingredients were well stirred and left to stand at 4° C. for reaction. The reaction was stopped and evaluation was made by the same procedures as in Experiment 2-2.
To 50 mM Tris-HCl (pH 8), FITC-β-Ala-QG-alkyne, NK6-AP and MTG were added to give respective final concentrations of 0.1 mM, 0.5 mg/ml, and 0.1 U/ml. For the purpose of comparison, a MTG-free sample was also prepared. Both samples were well stirred and left to stand at 4° C. for reaction. The reaction was stopped and evaluation was made by the same procedures as in Experiment 2-2.

MTG [3] = target: T1, MTG; test: MTG-catalyzed introduction of fluorescent substrates into anti-lysozyme IgG2a antibody; type: biochemical, microbial; conditions: substrate 1 mM, mouse anti-lysozyme IgG2a 0.5 mg/ml, MTG 1 U/ml, pH 7, overnight 4° C.; reduced SDS-PAGE
Procedure: A fluorescent substrate (FITC-ε-Acp-QG, FITC-β-Ala-QG, TR-β-Ala-QG or […]), mouse-derived anti-lysozyme IgG2a antibody (monoclonal) and MTG were added to a 10 mM phosphate buffer (pH 7) to give respective final concentrations of 1 mM, 0.5 mg/ml and 1 U/ml. For the purpose of comparison, an MTG-free sample was prepared. The ingredients were thoroughly agitated and the resulting solution was left to stand overnight at 4° C.
After the reaction, the samples were subjected to SDS-PAGE. The gel from SDS-PAGE was examined with a fluorescent imager before it was stained with a CBB dye solution. For the Dns-ε-Acp-QG containing sample, examination was made with a transilluminator.

NK6-AP [4] = target: T2, NK6-AP (Escherichia coli, UniProt P00634); test: Effect of modification on the enzymatic activity of NK6-AP (p-NPP); type: biochemical; conditions: AP 28 nM, p-NPP 1 mM, pH 8.0, 27° C., with vs without MTG
T2 construct: NK6-AP; MKHKGSTPEMP-ALGLKLEHHHHHH; made in house
T2 sequence (P00634 22-471): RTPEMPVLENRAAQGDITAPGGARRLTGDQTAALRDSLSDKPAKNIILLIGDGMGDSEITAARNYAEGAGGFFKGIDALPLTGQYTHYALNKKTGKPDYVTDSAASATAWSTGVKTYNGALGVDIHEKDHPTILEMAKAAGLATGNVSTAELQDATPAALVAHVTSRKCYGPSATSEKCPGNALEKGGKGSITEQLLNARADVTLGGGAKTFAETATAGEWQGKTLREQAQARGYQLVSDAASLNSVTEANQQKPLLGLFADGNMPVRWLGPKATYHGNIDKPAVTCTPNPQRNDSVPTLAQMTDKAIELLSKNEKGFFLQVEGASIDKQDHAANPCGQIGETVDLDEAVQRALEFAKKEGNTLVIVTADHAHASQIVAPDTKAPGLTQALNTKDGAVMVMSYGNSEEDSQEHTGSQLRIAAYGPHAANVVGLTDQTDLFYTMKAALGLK
Procedure: The effect of introduction on the enzymatic activity was studied. In the study, p-nitrophenylphosphoric acid (p-NPP) was used as a substrate and the activities of the samples prepared in Experiment 2-2 were measured; AP would catalyze the dephosphorylation of p-NPP to form p-nitrophenol (p-NP). The reaction conditions for activity measurement were AP 28 nM, p-NPP 1 mM and pH 8.0 and at a controlled temperature of 27° C., the p-NP derived absorption at 410 nm was traced.
The activities of the samples prepared in Experiment 2-2 were measured, with p-nitrophenylphosphoric acid (p-NPP) being used as a substrate; AP would catalyze the dephosphorylation of p-NPP to form p-nitrophenol (p-NP). The reaction conditions for activity measurement were AP 28 nM, p-NPP 1 mM and pH 8.0 and at a controlled temperature of 27° C., the p-NP derived absorption at 410 nm was traced.
With p-nitrophenylphosphoric acid (p-NPP) being used as a substrate, the sampled prepared in Experiment 2-4 were measured; AP would catalyze the dephosphorylation of p-NPP to form p-nitrophenol (p-NP) (see below). The reaction conditions for activity measurement were AP 28 nM, p-NPP 1 mM and pH 8.0 and at a controlled temperature of 27° C., the p-NP derived absorption at 410 nm was traced.

NK6-AP [5] = target: T2, NK6-AP; test: Degree of labeling of dual labeled protein (absorbance at 280 nm and 330 nm); conditions: after His-tag purification
Procedure: By His-tag purification on a Ni-NTA column, the dual labeled protein was separated from an excess of Dns-β-Ala-QG-biotin. An excess of the imidazole used in the elution step was removed by gel filtration purification on a PD-10 column with 20 mM Tris-HCl (pH 8) being used as an elution buffer.
The resulting dual labeled protein was concentrated with a suction-type centrifugal evaporator and an attempt was made to calculate the degree of its labeling by measuring the absorbance at 280 nm and 330 nm.

[6] = fluorescein in FITC-β-Ala-QG; cited from earlier work
BSA (antigen) = test: Antigen recognizing ability by ELISA (rabbit-derived anti-BSA IgG antibody); type: binding; conditions: rabbit-derived anti-BSA IgG antibody (polyclonal) modified by MTG
Procedure: A study was made on samples that were prepared by introducing a fluorescent substrate (FITC-ε-Acp-QG or FITC-β-Ala-QG) into a rabbit-derived anti-BSA IgG antibody (polyclonal) under the same conditions as in Experiment 2-2.
ELISA was performed by the following procedure (FIG. 3-5). • 1) To a Black Plate, 5 mg/ml of BSA (antigen) was added in an amount of 150 µl/well and left to stand overnight at 37° C. • 2) The product of 1) was washed with PBST five times. • 3) Modified anti-BSA IgG antibodies were added in an amount of 60 µl/well and left to stand at room temperature for 5 hours. • 4) The product of 3) was washed with PBST five times. • 5) Examination was made with a fluorescent imager. • 6) A […] sample of AP-labeled anti-rabbit IgG IgG antibodies were added in an amount of 150 µl/well and left to stand at 37° C. for 3 hours. • 7) The product of 6) was washed with TBST five times. • 8) The substrate was added and 10 minutes later, fluorescence derived from the enzymatic reaction was examined with a fluorescent imager.

avidin [7] = target: avidin (Gallus gallus, UniProt P02701); conditions: cited from earlier work
Sequence of avidin (Gallus gallus, UniProt P02701) (P02701 25-152, species assumed): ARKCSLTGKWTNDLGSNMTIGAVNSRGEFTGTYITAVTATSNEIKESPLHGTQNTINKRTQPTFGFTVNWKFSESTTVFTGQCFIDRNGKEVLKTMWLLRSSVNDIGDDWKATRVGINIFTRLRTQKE

avidin [8] = test: Immobilizing the dual labeled protein on avidin-coated microplate; type: binding; conditions: 1.5 μM, 37° C., 1 h; dansyl fluorescence and AP activity (ECF)
Procedure: 2-6. Immobilizing the Dual Labeled Protein on Microplate • 1) After His-tag purification, the dual labeled protein (1.5 μM) was dissolved in 20 mM Tris-HCl (pH 8) and added onto an avidin-coated microplate (product of Nunc) in an amount of 100 μl/well so that it would be immobilized by the interaction between biotin and avidin (37° C., 1 h). • 2) To observe the fluorescence derived from dansyl groups, 20 mM Tris-HCl (pH 8) was added in an amount of 100 μl/well and immobilization was verified by a fluorescent imager. • 3) A solution of ECF as a fluorescent substrate of AP was diluted 100 folds with 1 M Tris-HCl (pH 8) and added onto the plate in an amount of 100 μl/well for reaction with the immobilized AP (25° C., 5 min). (Before steps 2) and 3), a microplate washer was used to wash the plate with TBST (TBS+[…] Tween 20) three times each in an amount of 300 μl/well.)

CN(C)c1cccc2c(S(=O)(=O)NCCCCCC(=O)NC(CCC(N)=O)C(=O)NCC(=O)O)cccc12 (stereo not shown) [Dns-ε-Acp-QG] ({Dansyl-Ahx}-[ξQ]-Gly-OH)
Reactivity of MTG for fluorescent substrate (introduction into NK6-AP) (MTG [1]): served as substrates of MTG
Reactivity of MTG for fluorescent substrate (introduction into NK6-AP) (MTG [2]): recognizable as a substrate of MTG
Reactivity of antibody with fluorescent substrate by MTG catalysis (MTG [3]): H chains of the antibody are modified; also recorded: site-specific modification of the H chains in the antibody

CN(C)c1cccc2c(S(=O)(=O)NCCC(=O)NC(CCC(N)=O)C(=O)NCC(=O)NCCOCCOCCNC(=O)CCCC[C@@H]3SC[C@@H]4NC(=O)N[C@@H]43)cccc12 (stereo partly drawn) [Dns-β-Ala-QG-biotin]
Reactivity of MTG for dual labeled substrate (introduction into NK6-AP) (MTG [2]; substrate 100 μM, 20 mM Tris-HCl pH 8, overnight 4° C.): had been introduced into NK6-AP; also recorded: confirmed the MTG-catalyzed introduction
Relative activity of NK6-AP after MTG-catalyzed introduction (NK6-AP [4]): hardly any difference in the activity of AP; also recorded: in no way affected by the introduction
Degree of labeling (moles of dansyl groups / moles of NK6-AP) (NK6-AP [5]): 1.1

fluorescein isothiocyanate [FITC]
pKa [6]: 6.4

NC(=O)CCC(NC(=O)CCCCCNC(=S)Nc1ccc(-c2c3ccc(=O)cc-3oc3cc(O)ccc23)c(C(=O)O)c1)C(=O)NCC(=O)O (stereo not shown) [FITC-ε-Acp-QG]
Reactivity of MTG for fluorescent substrate (introduction into NK6-AP) (MTG [2]): served as substrates of MTG; also recorded: recognizable as a substrate of MTG
Reactivity of antibody with fluorescent substrate by MTG catalysis (MTG [3]): H chains of the antibody are modified; also recorded: site-specific modification of the H chains in the antibody
Antigen recognizing ability of modified antibody (BSA (antigen)): maintained its antigen recognizing ability

O=C(O)CCCC[C@@H]1SC[C@@H]2NC(=O)N[C@@H]21 [biotin]
Ka (avidin [7]): 10^15 M

NC(=O)CCC(NC(=O)c1ccc(-c2c3ccc(=O)cc-3oc3cc(O)ccc23)c(C(=O)O)c1)C(=O)NCC(=O)O (stereo not shown) [Flc-QG]
Reactivity of MTG for fluorescent substrate (introduction into NK6-AP) (MTG [2]): not recognizable by MTG; also recorded: not recognized as a substrate

B1: dual labeled protein: NK6-AP into which Dns-β-Ala-QG-biotin was introduced by MTG catalysis (conjugate)
chain: MKHKGSTPEMPVLENRAAQGDITAPGGARRLTGDQTAALRDSLSDKPAKNIILLIGDGMGDSEITAARNYAEGAGGFFKGIDALPLTGQYTHYALNKKTGKPDYVTDSAASATAWSTGVKTYNGALGVDIHEKDHPTILEMAKAAGLATGNVSTAELQDATPAALVAHVTSRKCYGPSATSEKCPGNALEKGGKGSITEQLLNARADVTLGGGAKTFAETATAGEWQGKTLREQAQARGYQLVSDAASLNSVTEANQQKPLLGLFADGNMPVRWLGPKATYHGNIDKPAVTCTPNPQRNDSVPTLAQMTDKAIELLSKNEKGFFLQVEGASIDKQDHAANPCGQIGETVDLDEAVQRALEFAKKEGNTLVIVTADHAHASQIVAPDTKAPGLTQALNTKDGAVMVMSYGNSEEDSQEHTGSQLRIAAYGPHAANVVGLTDQTDLFYTMKAALGLKLEHHHHHH
Immobilization on avidin-coated microplate (avidin [8]): immobilized on the microplate while retaining its function
